According to ChEMBL document CHEMBL1201862, “PubChem BioAssay data set” (2004):
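Interpolation was linear, between the two tested concentrations surrounding the appropriate level; five concentrations were tested over 48 hours in 96-well plates. GI50 = concentration required for 50% inhibition of growth.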 Active and inactive are the calls of the source. No stated cut-off is given here; in the data, active = GI50 up to about 1.1 µM and inactive = higher.

Tests used:
Assay in all cases: DTP human tumour cell line panel, 48 h
HOP-92 = tested on: HOP-92
HCT-116 = tested on: HCT-116
OVCAR-3 = tested on: OVCAR-3
SF-268 = tested on: SF-268
NCI-H23 = tested on: NCI-H23
CAKI-1 = tested on: CAKI-1
NCI-H522 = tested on: NCI-H522
UACC-257 = tested on: UACC-257
U-251 = tested on: U-251
DU-145 = tested on: DU-145
OVCAR-8 = tested on: OVCAR-8
HCC 2998 = tested on: HCC 2998
CCRF-CEM = tested on: CCRF-CEM
M14 = tested on: M14
UO-31 = tested on: UO-31
SK-MEL-2 = tested on: SK-MEL-2
MDA-N = tested on: MDA-N
K562 = tested on: K562
MOLT-4 = tested on: MOLT-4
EKVX = tested on: EKVX

Structure (SMILES) | GI50 (HOP-92) | GI50 (HCT-116) | GI50 (OVCAR-3) | GI50 (SF-268) | GI50 (NCI-H23) | GI50 (CAKI-1) | GI50 (NCI-H522) | GI50 (UACC-257) | GI50 (U-251) | GI50 (DU-145) | GI50 (OVCAR-8) | GI50 (HCC 2998) | GI50 (CCRF-CEM) | GI50 (M14) | GI50 (UO-31) | GI50 (SK-MEL-2) | GI50 (MDA-N) | GI50 (K562) | GI50 (MOLT-4) | GI50 (EKVX)
C[N+](C)(C)CCN(Cc1cccs1)c1ccccn1 | 3.6 µM (inactive) | > 100 µM (inactive) | 35.7 µM (inactive) | 86.7 µM (inactive) | 88.1 µM (inactive) | > 100 µM (inactive) | 40.8 µM (inactive) | > 100 µM (inactive) | > 100 µM (inactive) | > 100 µM (inactive) | > 100 µM (inactive) | > 100 µM (inactive) | > 100 µM (inactive) | > 100 µM (inactive) | > 100 µM (inactive) | > 100 µM (inactive) | > 100 µM (inactive) | 64.3 µM (inactive) |  | 
COc1cc([C@@H]2c3cc4c(c(O)c3C[C@H]3COC(=O)[C@@H]32)OCO4)cc(OC)c1OC [BETA-PELTATIN A] | 0.015 µM (active) | 0.015 µM (active) | 0.015 µM (active) | 0.015 µM (active) |  | 0.015 µM (active) | 0.0676 µM (active) |  |  | < 0.0241 µM (active) | 0.015 µM (active) | 0.015 µM (active) | 1.8 µM (inactive) | 0.0241 µM (active) | 0.0693 µM (active) | 0.015 µM (active) | 0.000284 µM (active) | 19.5 µM (inactive) | 0.015 µM (active) | 0.282 µM (active)
CC(NNC(=O)c1cc[n+]([BH2-]C#N)cc1)c1ccccc1F (centres undefined) | > 100 µM (inactive) | > 100 µM (inactive) | > 100 µM (inactive) | > 100 µM (inactive) |  | > 100 µM (inactive) | > 100 µM (inactive) | > 100 µM (inactive) | > 100 µM (inactive) | > 100 µM (inactive) | > 100 µM (inactive) | > 100 µM (inactive) | > 100 µM (inactive) | > 100 µM (inactive) | > 100 µM (inactive) | > 100 µM (inactive) | > 100 µM (inactive) | > 100 µM (inactive) | > 100 µM (inactive) | > 100 µM (inactive)
CCOC(=O)C(=O)C(=O)NN(C)C1=NCCN1 | > 100 µM (inactive) | > 100 µM (inactive) | > 100 µM (inactive) | > 100 µM (inactive) | > 100 µM (inactive) |  | > 100 µM (inactive) | > 100 µM (inactive) | > 100 µM (inactive) | > 100 µM (inactive) | > 100 µM (inactive) | > 100 µM (inactive) | > 100 µM (inactive) | > 100 µM (inactive) | > 100 µM (inactive) | > 100 µM (inactive) | > 100 µM (inactive) | > 100 µM (inactive) | > 100 µM (inactive) | > 100 µM (inactive)
C=C(C)[C@@H]1CCC2=C[C@H](OC2=O)[C@@]2(C)C[C@@H]2C(=O)/C=C(/C)C(=O)[C@H]1OC(C)=O | 41.2 µM (inactive) | 5.74 µM (inactive) | 14.3 µM (inactive) | 28.1 µM (inactive) | 11.6 µM (inactive) | 14.2 µM (inactive) | 4.3 µM (inactive) | 21.1 µM (inactive) | 28.6 µM (inactive) | 5.97 µM (inactive) | 15.1 µM (inactive) | 21.7 µM (inactive) | 5.02 µM (inactive) | 24.4 µM (inactive) | 10.9 µM (inactive) | 26.3 µM (inactive) | 8.67 µM (inactive) |  | 5.66 µM (inactive) | 21.2 µM (inactive)
O=c1[nH]nc(-c2ccccc2)n1/N=C\c1ccccc1 | > 100 µM (inactive) | > 100 µM (inactive) | > 100 µM (inactive) | 31 µM (inactive) | > 100 µM (inactive) | > 100 µM (inactive) | > 100 µM (inactive) | > 100 µM (inactive) | > 100 µM (inactive) | > 100 µM (inactive) | > 100 µM (inactive) | > 100 µM (inactive) | > 100 µM (inactive) |  | > 100 µM (inactive) | > 100 µM (inactive) | > 100 µM (inactive) | > 100 µM (inactive) | > 100 µM (inactive) | > 100 µM (inactive)
O=C(c1cccs1)N(C(=S)OCCOc1ccccc1)c1ccccc1 | 18.8 µM (inactive) | 19.4 µM (inactive) | 21 µM (inactive) | 34.1 µM (inactive) | 20.7 µM (inactive) | 27.2 µM (inactive) | 23 µM (inactive) | 29.4 µM (inactive) | 21.4 µM (inactive) | 28.6 µM (inactive) | 25.5 µM (inactive) | 24.7 µM (inactive) | 27.6 µM (inactive) | 17 µM (inactive) |  | 21.3 µM (inactive) | 17.2 µM (inactive) | 36.1 µM (inactive) | 27.4 µM (inactive) | 29.5 µM (inactive)
C=C1C(=O)O[C@H]2C[C@@H]1C(=O)CC(C)CCCC(C)=CCC[C@@]2(C)O (some centres undefined) | > 25 µM (inactive) | > 25 µM (inactive) | > 25 µM (inactive) | > 25 µM (inactive) | > 25 µM (inactive) |  | > 25 µM (inactive) | > 25 µM (inactive) | > 25 µM (inactive) | > 25 µM (inactive) | > 25 µM (inactive) | > 25 µM (inactive) | > 25 µM (inactive) | > 25 µM (inactive) | > 25 µM (inactive) | > 25 µM (inactive) | > 25 µM (inactive) |  | > 25 µM (inactive) | > 25 µM (inactive)
CCCC[C@@H](C)/C=C1\CN2CCC[C@H]2[C@@](C)(O)[C@@H]1O | 17.2 µM (inactive) |  | > 100 µM (inactive) | 44.7 µM (inactive) | 32.9 µM (inactive) | 4.2 µM (inactive) | 56.1 µM (inactive) | > 100 µM (inactive) | 66.2 µM (inactive) | 17.3 µM (inactive) | 65.5 µM (inactive) | 71.3 µM (inactive) | 12.3 µM (inactive) | 53 µM (inactive) | 50.7 µM (inactive) | > 100 µM (inactive) | > 100 µM (inactive) | > 100 µM (inactive) | > 100 µM (inactive) | > 100 µM (inactive)
COc1ccc(NC(=O)CSc2nnc(-c3ccc(/N=C\c4ccc(Cl)cc4)cc3)o2)cc1 | 14.4 µM (inactive) | 14.2 µM (inactive) | 21.4 µM (inactive) | 13.6 µM (inactive) | 36 µM (inactive) |  | 26.7 µM (inactive) | 46.5 µM (inactive) | 24.8 µM (inactive) | 34.5 µM (inactive) | 35.9 µM (inactive) | 52.8 µM (inactive) | 8.22 µM (inactive) | 26.5 µM (inactive) | > 54.7 µM (inactive) | 15 µM (inactive) | 39.6 µM (inactive) | 11 µM (inactive) | 13.9 µM (inactive) | > 59.2 µM (inactive)
O=C1CCCC2C3CC(CN12)C1CCCCN1C3.[O-][Cl+3]([O-])([O-])O (centres undefined) | > 100 µM (inactive) | > 100 µM (inactive) | > 100 µM (inactive) | > 100 µM (inactive) | > 100 µM (inactive) | > 100 µM (inactive) | > 100 µM (inactive) | > 100 µM (inactive) | > 100 µM (inactive) | > 100 µM (inactive) | > 100 µM (inactive) | > 100 µM (inactive) | > 100 µM (inactive) | > 100 µM (inactive) | > 100 µM (inactive) | > 100 µM (inactive) | > 100 µM (inactive) |  | > 100 µM (inactive) | > 100 µM (inactive)
[O-][S@@+]1c2ccc3ccccc3c2N[C@@H]2[C@H]1[C@H]1C=C[C@@H]2C1 | 38.4 µM (inactive) | 39.5 µM (inactive) | 11.9 µM (inactive) | 61 µM (inactive) | 35.3 µM (inactive) | > 100 µM (inactive) | 21.5 µM (inactive) | 56.6 µM (inactive) | 76.4 µM (inactive) | 46.9 µM (inactive) | 35.8 µM (inactive) |  | 23.6 µM (inactive) | 48.4 µM (inactive) | 64.4 µM (inactive) | 37.4 µM (inactive) | 20.8 µM (inactive) | 37.1 µM (inactive) | 26.6 µM (inactive) | > 100 µM (inactive)
NNC(=O)c1cc(Cl)ccc1NC(=O)C12CC3CC(CC(C3)C1)C2 | 26.3 µM (inactive) | 25.2 µM (inactive) | 25.5 µM (inactive) | 20.2 µM (inactive) | 37.6 µM (inactive) | 24.2 µM (inactive) | 25.4 µM (inactive) | 29.3 µM (inactive) | 31.4 µM (inactive) | 44.8 µM (inactive) | 30.4 µM (inactive) | 18.5 µM (inactive) |  | 14.1 µM (inactive) | 17.1 µM (inactive) | 37.8 µM (inactive) | 26.2 µM (inactive) | 29.2 µM (inactive) | 12.1 µM (inactive) | 
Cc1nc([N+](=O)[O-])cn1-c1nc2ccccn2c1[N+](=O)[O-] | > 100 µM (inactive) | 74.3 µM (inactive) | > 100 µM (inactive) | > 100 µM (inactive) | 47.8 µM (inactive) | 53.5 µM (inactive) | 55 µM (inactive) | 99.3 µM (inactive) | 53.2 µM (inactive) | 26.5 µM (inactive) | 86.1 µM (inactive) | 41.2 µM (inactive) |  | > 100 µM (inactive) | 88.5 µM (inactive) | 43.4 µM (inactive) | 57.4 µM (inactive) | 80.4 µM (inactive) |  | 63.7 µM (inactive)
CSc1ccc(/C=C/C(=O)c2nc3ccccc3[nH]2)cc1 | 77.1 µM (inactive) | 12.7 µM (inactive) | 16.6 µM (inactive) | 26.9 µM (inactive) | 23.6 µM (inactive) | 2.26 µM (inactive) | 12.2 µM (inactive) | 20.6 µM (inactive) |  | 1.87 µM (inactive) | 37.2 µM (inactive) | 10.7 µM (inactive) | 3.49 µM (inactive) | 15.9 µM (inactive) | 3.66 µM (inactive) | 18.1 µM (inactive) | 7.36 µM (inactive) | 4.41 µM (inactive) | 3.02 µM (inactive) | 17.8 µM (inactive)
